# Reference: patent publication US7312224B2, “Pyrimidine derivatives” (Merck Patent GmbH, priority 2001, dated 2007)
# Structures can show the parent of a compound that is named as a salt.
# Test system: not given
# Assay: not given
# Details: not given
row,Structure (SMILES),melting point
1,"COc1ccc(CNc2nc(CN3CCC(C(=O)O)CC3)nc3oc4c(c23)CCCC4)cc1Cl [Example 4, 1-[4-(3-chloro-4-methoxybenzylamino)-5,6,7,8-tetrahydrobenzo[4,5]furo[2,3-d]pyrimidin-2-ylmethyl]piperidine-4-carboxylic acid]",233 to 235 °C
2,"COc1ccc(CNc2nc(CCCC(=O)O)nc3oc4c(c23)CCCC4)cc1Cl (as salt: salt) [Example 3, 4-[4-(3-chloro-4-methoxybenzylamino)-5,6,7,8-tetrahydrobenzo[4,5]furo[2,3-d]pyrimidin-2-yl]butyric acid]",205 °C
3,"O=C(O)c1ccc(-c2nc(NCc3ccc4c(c3)OCO4)c3c4c(oc3n2)CCCC4)cc1 (as salt: salt) [Example 2, 4-[4-(3,4-methylenedioxybenzylamino)-5,6,7,8-tetrahydrobenzo[4,5]furo[2,3-d]pyrimidin-2-yl]benzoic acid]",205 °C
4,"COc1ccc(CNc2nc(-c3ccc(C(=O)O)cc3)nc3c2c2ccccc2n3C)cc1Cl (as salt: sodium) [Example 8, 4-[4-(3-chloro-4-methoxybenzylamino)-9-methyl-9H-1,3,9-triazafluoren-2-yl]benzoic acid]",> 250 °C
5,"COc1ccc(CNc2nc(-c3ccc(C(=O)O)cc3)nc3c2c2c(n3C(C)c3ccccc3)CCCC2)cc1Cl (stereo not shown) (as salt: potassium) [Example 1, 4-[4-(3-chloro-4-methoxybenzylamino)-9-(1-phenylethyl)-6,7,8,9-tetrahydro-5H-1,3,9-triazafluoren-2-yl]benzoic acid]",179 °C
6,"CCn1c2ccccc2c2c(NCc3ccc4c(c3)OCO4)nc(-c3ccc(C(=O)O)cc3)nc21 (as salt: sodium) [Example 7, 4-[4-(3,4-methylenedioxybenzylamino)-9-ethyl-9H-1,3,9-triazafluoren-2-yl]benzoic acid]",> 250 °C

# Target: cGMP phosphodiesterase (PDE V) (Homo sapiens, UniProt O76074)
# Assay: Affinity to PDE V (IC50, inhibition of enzyme activity)
# Assay type: biochemical
# Details: concentration of the inhibitor needed to achieve 50% inhibition of the enzyme activity
# Description: The biological activity of the compounds of the formula I can be determined by methods as described, for example, in WO 93/06104.
# The affinity of the compounds according to the invention for cGMP and cAMP phosphodiesterase is determined by measuring their IC50 values (concentration of the inhibitor needed to achieve 50% inhibition of the enzyme activity).
# The determinations can be carried out using enzymes isolated by known methods (for example W. J. Thompson et al., Biochem. 1971, 10, 311). The experiments can be carried out using a modified batch method of W. J. Thompson and M. M. Appleman (Biochem. 1979, 18 5228).
row,Structure (SMILES),IC50
1,"COc1ccc(CNc2nc(-c3ccc(C(=O)O)cc3)nc3c2c2c(n3C(C)c3ccccc3)CCCC2)cc1Cl (stereo not shown) [Example 1, 4-[4-(3-chloro-4-methoxybenzylamino)-9-(1-phenylethyl)-6,7,8,9-tetrahydro-5H-1,3,9-triazafluoren-2-yl]benzoic acid]",300 nM
